One experiment concerns the target T1, CDK9/Cyclin K (Homo sapiens, UniProt P50750).
T1 construct: His; purchased Invitrogen
As to the kind of experiment: LanthaScreen Eu Kinase Binding Assay, CDK9/Cyclin K. The settings on record: tracer 236, read-out: CDK9/Cyclin K (activity range), Kd. Summed up:
(§1)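 TR-FRET displacement of an Alexa Fluor 647 active-site tracer, detected with a Eu anti-GST antibody, over an 8-point 1:3 compound series. Tracer was set at its Kd (30 nM for CDK2/Cyclin A, CDK7 and CDK9/Cyclin T1; 35 nM for CDK9/Cyclin K). Read after 1 h at room temperature; Kd was fitted from sigmoidal curves.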
(In TR-FRET formats the signal depends on donor and acceptor labels being close together.)

A further experiment addresses T2, CDK7/CyclinH/MAT1 (Homo sapiens, UniProt P50613).
T2 construct: His; purchased Carna Biosciences
As to the kind of experiment: LanthaScreen Eu Kinase Binding Assay, CDK7. The settings on record: tracer 236, read-out: CDK7 (activity range), Kd. In outline: as §1

The next experiment deals with T3, CDK2/CyclinA (Homo sapiens, UniProt P24941).
T3 construct: GST; purchased Proqinase
Kind of experiment: LanthaScreen Eu Kinase Binding Assay, CDK2. Conditions: tracer 236, read-out: CDK2 (activity range), Kd. Summed up: as §1

The subject of experiment [1] is NF-kappaB reporter gene activation. Kind of experiment: NF-kappaB Reporter Assay. Conditions: Homo sapiens; HEK293 cells, pNFkBluc reporter, 20 ng/ml TNF alpha, 5 h; read-out: NF-kappaB activation (activity range), IC50. It counts as cell-based. The procedure: 3.2 NF-kappaB Reporter Assay
Cells were maintained in RPMI cell culture medium+glutamine (PAN Biotech GmbH, Aidenbach, Germany) supplemented with 10% fetal calf serum (PAA Laboratories GmbH, Pasching, Austria) and grown at 37° C., 5% CO2. HEK293 cells grown to 50% confluence were transfected with the Amaxa® Cell Line Nucleofector® Kit V (Lonza, Basel, Switzerland, catalog #VCA-1003). Transfections were performed according to manufacturer's optimized protocol for transfection of HEK293 cells. In brief, 2×10^5 cells were transfected with 5 μg highly purified plasmid DNA. Cells were transfected with a NF-kappa B reporter plasmid (pNFkBluc), pTALluc for control, or pMAXGFP for transfection control. After transfection, cells were taken up in 500 μL RPMI1640 cell culture medium, incubated for 1 h at 37° C., and 4.5 ml DMEM without phenol red were added per transfection. Transfected cells were seeded in 96 well plates (Greiner Bio-One, Frickenhausen, Germany, catalog #655098) with 100 μL cell suspension per well and incubated for 48 h. To each well, 100 μL DMEM with 2× concentrated compound diluted from 10 mM DMSO stocks, or 100 μL DMEM with 0.4% DMSO for control wells, was added. The compounds of general formula (I) summarized in Table 6 were used in this assay. Cells were stimulated with 20 ng/ml TNF alpha, and plates were incubated for 5 h at 37° C./5% CO2. Cell culture supernatants were removed to leave 100 μl medium per well, followed by addition of 100 μl Bright Glo luciferase assay reagent (Promega, Madison, Wis., USA, catalog #E2620), and shaking for 5 minutes in the dark. Luminescence was measured with a Victor Photospectrometer (Perkin Elmer, Waltham, Mass., USA). IC50 values were calculated with the software Excel Fit (IDBS, Guildford, UK) from 2-fold dilution series comprising at least 10 concentrations in duplicates.

Some results are limits rather than exact numbers.

T1 sequence (P50750 whole entry): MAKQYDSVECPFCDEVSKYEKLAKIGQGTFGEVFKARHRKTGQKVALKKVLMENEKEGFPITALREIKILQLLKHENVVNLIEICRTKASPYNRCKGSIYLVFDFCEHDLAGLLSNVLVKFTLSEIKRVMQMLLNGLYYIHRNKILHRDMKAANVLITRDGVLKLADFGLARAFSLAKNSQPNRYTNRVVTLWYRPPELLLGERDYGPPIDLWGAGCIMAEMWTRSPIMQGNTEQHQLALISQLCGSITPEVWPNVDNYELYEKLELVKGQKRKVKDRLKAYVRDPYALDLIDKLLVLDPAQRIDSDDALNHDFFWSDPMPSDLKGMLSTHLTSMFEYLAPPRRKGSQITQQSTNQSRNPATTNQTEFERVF
T1 sequence (O75909 1-357 isoform O75909-1 partner): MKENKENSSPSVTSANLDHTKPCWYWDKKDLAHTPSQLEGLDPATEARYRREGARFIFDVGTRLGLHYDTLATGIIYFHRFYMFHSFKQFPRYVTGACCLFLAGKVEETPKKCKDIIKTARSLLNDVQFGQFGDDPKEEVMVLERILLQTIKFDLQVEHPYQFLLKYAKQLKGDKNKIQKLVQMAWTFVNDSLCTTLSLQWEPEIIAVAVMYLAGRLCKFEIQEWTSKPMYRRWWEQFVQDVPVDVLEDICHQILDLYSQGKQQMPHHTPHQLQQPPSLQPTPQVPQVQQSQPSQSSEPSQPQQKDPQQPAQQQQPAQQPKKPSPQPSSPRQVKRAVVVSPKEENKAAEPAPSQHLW
T2 sequence (P50613 whole entry): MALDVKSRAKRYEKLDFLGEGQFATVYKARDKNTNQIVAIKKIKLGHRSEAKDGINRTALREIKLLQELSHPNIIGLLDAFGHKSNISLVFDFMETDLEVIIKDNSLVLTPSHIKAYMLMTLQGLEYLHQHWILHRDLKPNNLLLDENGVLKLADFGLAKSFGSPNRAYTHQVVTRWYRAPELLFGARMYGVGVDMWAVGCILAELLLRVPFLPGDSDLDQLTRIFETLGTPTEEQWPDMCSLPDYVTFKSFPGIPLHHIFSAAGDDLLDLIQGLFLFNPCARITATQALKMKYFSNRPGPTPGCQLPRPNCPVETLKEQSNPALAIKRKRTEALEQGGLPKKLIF
T2 sequence (P51946 whole entry partner): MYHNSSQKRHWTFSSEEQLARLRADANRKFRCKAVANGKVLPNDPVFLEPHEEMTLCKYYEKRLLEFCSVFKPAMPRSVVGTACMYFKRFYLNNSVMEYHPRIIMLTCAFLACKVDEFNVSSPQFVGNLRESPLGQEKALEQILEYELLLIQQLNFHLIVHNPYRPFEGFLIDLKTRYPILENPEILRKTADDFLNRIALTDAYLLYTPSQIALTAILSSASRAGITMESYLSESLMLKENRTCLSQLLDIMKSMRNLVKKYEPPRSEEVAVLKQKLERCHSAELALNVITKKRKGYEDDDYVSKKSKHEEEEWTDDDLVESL
T2 sequence (P51948 whole entry partner): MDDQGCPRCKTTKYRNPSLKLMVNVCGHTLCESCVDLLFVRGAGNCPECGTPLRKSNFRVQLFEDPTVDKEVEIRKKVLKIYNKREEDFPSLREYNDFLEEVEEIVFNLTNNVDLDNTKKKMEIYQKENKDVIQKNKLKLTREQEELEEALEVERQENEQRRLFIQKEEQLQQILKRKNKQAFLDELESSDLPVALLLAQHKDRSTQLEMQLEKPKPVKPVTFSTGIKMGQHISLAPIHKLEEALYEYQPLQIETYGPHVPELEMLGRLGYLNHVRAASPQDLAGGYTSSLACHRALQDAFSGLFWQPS

`NS(=O)(=O)Cc1cccc(Nc2ncnc(N3CCc4nc[nH]c4C3)n2)c1` [Compound B44, 3-[(4-(6,7-Dihydro-3H-imidazo[4,5-c]pyridin-5(4H)-yl)-1,3,5-triazin-2-yl)amino]benzenemethanesulfonamide]: the Kd is less than 100 nM on CDK9/Cyclin K, 1000 to 10000 nM at CDK7/CyclinH/MAT1 and less than 100 nM on CDK2/CyclinA.

By IC50 is commonly meant the concentration that gives 50% inhibition. Take `COC(=O)[C@H]1CCCN1c1ncnc(Nc2cccc(CS(N)(=O)=O)c2)n1` [Compound B21, (R)-Methyl 1-[4-((3-(Sulfamoylmethyl)phenyl)amino)-1,3,5-triazin-2-yl]pyrrolidine-2-carboxylate]: the figures for the Kd at CDK9/Cyclin K, on CDK7/CyclinH/MAT1 and on CDK2/CyclinA were 100 to 1000 nM, more than 10000 nM and 1000 to 10000 nM, respectively. In addition, in experiment [1], the IC50 is more than 10000 nM.

`COC[C@H]1CCCN1c1ncnc(Nc2cccc(CS(N)(=O)=O)c2)n1` [Compound B17, (R)-3-[(4-(2-(Methoxymethyl)pyrrolidin-1-yl)-1,3,5-triazin-2-yl)amino]benzenemethanesulfonamide]: the Kd is 100 to 1000 nM on CDK9/Cyclin K, more than 10000 nM on CDK7/CyclinH/MAT1 and 1000 to 10000 nM at CDK2/CyclinA. The IC50 in experiment [1] is more than 10000 nM.

Take `NS(=O)(=O)Cc1cccc(Nc2ncnc(N3CCc4ncsc4C3)n2)c1` [Compound B45, 3-[(4-(6,7-Dihydrothiazolo[5,4-c]pyridin-5(4H)-yl)-1,3,5-triazin-2-yl)amino]benzenemethanesulfonamide]: the Kd is 1000 to 10000 nM at CDK7/CyclinH/MAT1 and less than 100 nM at CDK2/CyclinA.

`NS(=O)(=O)Cc1cccc(Nc2ncnc(N3CCCCC3)n2)c1` [Compound B1, 3-[(4-(Piperidin-1-yl)-1,3,5-triazin-2-yl)amino]benzenemethane sulfonamide]: the Kd at CDK9/Cyclin K is 100 to 1000 nM; at CDK7/CyclinH/MAT1, more than 10000 nM; on CDK2/CyclinA, more than 10000 nM. For the same compound, in experiment [1], the IC50 is more than 10000 nM.

Regarding `NS(=O)(=O)Cc1cccc(Nc2ncnc(N3CCc4ncccc4C3)n2)c1` [Compound B38, 3-[(4-(7,8-Dihydro-1,6-naphthyridin-6(5H)-yl)-1,3,5-triazin-2-yl)amino]-benzenemethanesulfonamide], the figures for the Kd on CDK9/Cyclin K, at CDK7/CyclinH/MAT1 and at CDK2/CyclinA were less than 100 nM, 1000 to 10000 nM and 100 to 1000 nM, respectively. Moreover, the IC50 in experiment [1] lay in the range of 1000 to 10000 nM.

Take `NS(=O)(=O)Cc1cccc(Nc2ncnc(N3CCCn4nccc43)n2)c1` [Compound B47, 3-[(4-(6,7-Dihydropyrazolo[1,5-a]pyrimidin-4(5H)-yl)-1,3,5-triazin-2-yl)amino]benzenemethanesulfonamide]: the Kd is less than 100 nM on CDK9/Cyclin K, 100 to 1000 nM at CDK7/CyclinH/MAT1 and less than 100 nM on CDK2/CyclinA. For the same compound, the IC50 in experiment [1] was 1000 to 10000 nM.

`NS(=O)(=O)Cc1cccc(Nc2ncnc(N3CCCC3c3ccccc3)n2)c1` (racemic) [Compound B33, rac-3-[(4-(2-Phenylpyrrolidin-1-yl)-1,3,5-triazin-2-yl)amino]-benzenemethanesulfonamide]: the values for the Kd on CDK9/Cyclin K and at CDK7/CyclinH/MAT1 were less than 100 nM and more than 10000 nM, respectively. Also, the IC50 in experiment [1] lay within 1000 to 10000 nM.

Take `NS(=O)(=O)Cc1cccc(Nc2ncnc(N3Cc4cn[nH]c4C3)n2)c1` [Compound B51, 3-[(4-(Pyrrolo[3,4-c]pyrazol-5(1H,4H,6H)-yl)-1,3,5-triazin-2-yl)amino]-benzenemethanesulfonamide]: the Kd at CDK9/Cyclin K was less than 100 nM; at CDK7/CyclinH/MAT1, 1000 to 10000 nM; on CDK2/CyclinA, 1000 to 10000 nM.
